From US5137913A, “Diaryl ether cyclic ethers” (Imperial Chemical Industries PLC, priority 1989, dated 1992) come the findings set out here.

Structures are written as SMILES.

As usually defined, the IC50 is the concentration at which inhibition is half-maximal. A higher IC50 goes with weaker potency. The ED50 is the dose that gives a 50% effect, or the effect in half of the subjects. A low value points to greater potency.

The subject of assay [1] is 5-LO (LTB4) in heparinised human blood. Kind of assay: In vitro heparinised human blood challenged with A23187, LTB4 radioimmunoassay (test b). The class given is cell-based. The protocol:
b) An in vitro assay system involving incubating a test compound with heparinised human blood, prior to challenge with the calcium ionophore A23187 and then indirectly measuring the inhibitory effects on 5-LO by assaying the amount of LTB4 using the specific radioimmunoassay described by Carey and Forder (F. Carey and R. A. Forder, Brit. J. Pharmacol. 1985, 84, 34P) which involves the use of a protein-LTB4 conjugate produced using the procedure of Young et alia (Prostaglandins, 1983, 26(4), 605-613). The effects of a test compound on the enzyme cyclooxygenase (which is involved in the alternative metabolic pathway for arachidonic acid and gives rise to prostaglandins, thromboxanes and related metabolites) may be measured at the same time using the specific radioimmunoassay for thromboxane B2 (TxB2) described by Carey and Forder (see above). This test provides an indication of the effects of a test compound against 5-LO and also cyclooxygenase in the presence of blood cells and proteins. It permits the selectivity of the inhibitory effect on 5-LO or cyclooxygenase to be assessed.

The next assay has as its system 5-LO (LTB4). Kind of assay: Ex vivo assay: administration of compound, blood collection, challenge with A23187, LTB4 radioimmunoassay (test c). The following applies: oral. The class given is in vivo. The protocol: c) An ex vivo assay system, which is a variation of test b) above, involving administration of a test compound (usually orally as the suspension produced when a solution of the test compound in dimethylsulphoxide is added to carboxymethylcellulose), blood collection, heparinisation, challenge with A23187 and radioimmunoassay of LTB4 and TxB2. This test provides an indication of the bioavailability of a test compound as an inhibitor of 5-LO or cyclooxygenase.

Turning to `CCC1(c2cccc(Sc3ccc4ccccc4c3)c2)COC(C)(C)O1` (centres unmarked) [Example 1, 4-ethyl-2,2-dimethyl-4-[3-(naphth-2-ylthio)phenyl]-1,3-dioxolane], the IC50 in assay [1] is 0.5 µM. This molecule also displayed an ED50 in the assay on 5-LO (LTB4) of 3 mg/kg.
